Results reported in publication PMC10040441 (Nature biomedical engineering, 2023).

Tests used:
[1] = biological target: amyloid-β (Aβ40) aggregates (Homo sapiens, UniProt P05067); experiment: fluorescence intensity binding assay with synthetic Aβ[…] aggregates
[2] = biological target: amyloid-β (Aβ42) aggregates (Homo sapiens, UniProt P05067); experiment: as above
Sequence of amyloid-β (Aβ42) aggregates (P05067 672-713): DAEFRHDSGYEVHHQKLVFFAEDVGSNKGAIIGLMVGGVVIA

Sequence of amyloid-β (Aβ40) aggregates (P05067 672-711): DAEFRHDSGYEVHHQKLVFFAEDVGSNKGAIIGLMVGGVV

Q: Which Kd [1] does the source give for `CC1(C)C(/C=C/C2=C(c3ccc(CCC(=O)O)cc3)C(=C/C=C3/N(CCC[N+](C)(C)C)c4ccc(S(=O)(=O)O)cc4C3(C)C)/CCC2)=[N+](CCC[N+](C)(C)C)c2ccc(S(=O)(=O)O)cc21` [ZW800–1C] here?
A: The Kd was 43.7 ± 5.8 nM.

Q: What about the Kd [2] of the same compound?
A: Its Kd is 78.9 ± 12.3 nM.
